Measured values reported in patent US20100130608A1, “COMPOSITIONS AND METHODS FOR REDUCING TRIGLYCERIDE LEVELS” (Martek Biosciences Corporation, priority 2008, published 2010).
Marks after values point to notes of the source that are not given here.

Assays:
male Wister rats [1] = assay: Effect on triglyceride levels in high fructose diet rats; format: in vivo, rat; details: for Triglycerides, mean: oral gavage, mean ± SD; for Serum triglycerides, LSMEAN: least squares mean
Text: The effect of the DHA ethyl ester (DHA-EE) produced according to the method of Example 2 on triglyceride levels was investigated using male Wister rats. The DHA-EE used in this example contained DHA at about 93.6% (w/w) of the total fatty acid content of the dosage form. The effect of purified DHA-EE was compared to two different DHA-containing products: DHASCO-T® (Martek Bioscience Corporation, Columbia, Md.) and Lovaza® (Reliant Pharmaceuticals, Inc., Durham, N.C.). DHASCO-T® comprises approximately 45% DHA and 55% other fatty acids (with substantially no EPA). Lovaza® comprises approximately 41.7% DHA ethyl ester, 51.7% EPA ethyl ester, and 6.4% other fatty acids. The vehicle control comprised corn oil. 84 Wistar rats were randomized into 7 groups of 12 rats each. Each rat was administered orally a high fructose diet for 4-5 weeks to raise triglyceride levels. After 4-5 weeks, rats with a triglyceride level <300 mg/dL were excluded. Then each rat was administered either (a) a vehicle control, (b) DHA ethyl ester (0.6 g/kg/day, 1.3 g/kg/day, 2.5 g/kg/day, or 5.0 g/kg/day), (c) DHASCO-T (5.0 g/kg/day), or (d) Lovaza (5.0 g/kg/day) for 28 days by oral gavage. Diets were controlled for calories, nutrients and levels of vitamin E. Triglyceride levels of the rats were measured at 14 days and 28 days. Triglyceride values shown are averages for each treatment group, presented as actual mean values.
The triglyceride results presented below in Table 8 are calculated from the same data set as in Table 7. Triglyceride values shown in Table 8 are averages for each treatment group, presented as least squares mean values.

male Wister rats [2] = assay: Effect on total cholesterol levels in rats; format: in vivo, rat; details: for Serum cholesterol, LSMEAN: least squares mean; for Serum cholesterol, mean: mean ± SD
Procedure: The effect of the DHA ethyl ester of Example 2 on cholesterol levels was investigated using male Wister rats, and was compared to DHASCO-T® and Lovaza®. The rats were administered either (a) a vehicle control, (b) DHA ethyl ester (0.6 g/kg/day, 1.3 g/kg/day, 2.5 g/kg/day, or 5.0 g/kg/day), (c) DHASCO-T (5.0 g/kg/day), or (d) Lovaza (5.0 g/kg/day) for 28 days. Cholesterol levels, i.e., total cholesterol, of the rats were measured at 14 days and 28 days. Total cholesterol values shown are averages for each treatment group, i.e., actual mean values.
The cholesterol results presented below in Table 10 are calculated from the same data set as in Table 9. Cholesterol level values shown in Table 10 are averages for each treatment group, presented as least squares mean values.

[3] = rat, in vivo
Text: The plasma DHA fatty acid area percent and plasma EPA fatty acid area percent were determine in the rats at day 1 and day 29 (post necropsy).

[4] = 14 day, 0.6 g/kg/day fatty acid
[5] = 14 day, 1.3 g/kg/day fatty acid
[6] = 14 day, 2.5 g/kg/day fatty acid
[7] = 14 day, 5.0 g/kg/day fatty acid
[8] = 28 day, 0.6 g/kg/day fatty acid
[9] = 28 day, 1.3 g/kg/day fatty acid
[10] = 28 day, 2.5 g/kg/day fatty acid
[11] = 28 day, 5.0 g/kg/day fatty acid

## CC/C=C\C/C=C\C/C=C\C/C=C\C/C=C\C/C=C\CCC(=O)OCC [DHA-EE, ethyl docosahexaenoate]
Male Wister rats [1]; [4]
  Serum triglycerides % of control, LSMEAN: 65 % of control
  Triglycerides % of control, mean: 67 % of control
  Triglycerides, mean: 176.5 ± 96.4 mg/dL
  Serum triglycerides, LSMEAN: 168.4† mg/dL
Male Wister rats [1]; [5]
  Serum triglycerides % of control, LSMEAN: 67 % of control
  Triglycerides % of control, mean: 66 % of control
  Triglycerides, mean: 175.2 ± 50.6 mg/dL
  Serum triglycerides, LSMEAN: 173.6† mg/dL
Male Wister rats [1]; [6]
  Serum triglycerides % of control, LSMEAN: 47 % of control
  Triglycerides % of control, mean: 44 % of control
  Triglycerides, mean: 115.5 ± 60.9 mg/dL
  Serum triglycerides, LSMEAN: 120.2† mg/dL
Male Wister rats [1]; [7]
  Serum triglycerides % of control, LSMEAN: 43 % of control
  Triglycerides % of control, mean: 37 % of control
  Triglycerides, mean: 97.6 ± 47.8 mg/dL
  Serum triglycerides, LSMEAN: 110.7† mg/dL
Male Wister rats [1]; [8]
  Serum triglycerides % of control, LSMEAN: 93 % of control
  Triglycerides % of control, mean: 95 % of control
  Triglycerides, mean: 182.7 ± 86.9 mg/dL
  Serum triglycerides, LSMEAN: 174.5 mg/dL
Male Wister rats [1]; [9]
  Serum triglycerides % of control, LSMEAN: 60 % of control
  Triglycerides % of control, mean: 60 % of control
  Triglycerides, mean: 114.7 ± 37.2 mg/dL
  Serum triglycerides, LSMEAN: 113.1† mg/dL
Male Wister rats [1]; [10]
  Serum triglycerides % of control, LSMEAN: 60 % of control
  Triglycerides % of control, mean: 56 % of control
  Triglycerides, mean: 107.9 ± 58.4 mg/dL
  Serum triglycerides, LSMEAN: 112.6† mg/dL
Male Wister rats [1]; [11]
  Serum triglycerides % of control, LSMEAN: 47 % of control
  Triglycerides % of control, mean: 41 % of control
  Triglycerides, mean: 78.9 ± 46.5 mg/dL
  Serum triglycerides, LSMEAN: 87.6† mg/dL
Male Wister rats [1]; at 14 days, even at the lowest dosage level (0.6 g/kg/day)
  Effect on triglyceride levels (in words): reduces triglyceride levels
Male Wister rats [1]; day 28, 0.6 g DHA-EE
  Triglyceride levels versus control (in words): not significantly lower than control
Male Wister rats [2]; [4]
  Serum cholesterol % of control, LSMEAN: 80 % of control
  Serum cholesterol % of control, mean: 79 % of control
  Serum cholesterol, LSMEAN: 72.4 mg/dL
  Serum cholesterol, mean: 72.2 ± 17.7 mg/dL
Male Wister rats [2]; [5]
  Serum cholesterol % of control, LSMEAN: 82 % of control
  Serum cholesterol % of control, mean: 82 % of control
  Serum cholesterol, LSMEAN: 74.6 mg/dL
  Serum cholesterol, mean: 75.0 ± 24.0 mg/dL
Male Wister rats [2]; [6]
  Serum cholesterol % of control, LSMEAN: 85 % of control
  Serum cholesterol % of control, mean: 85 % of control
  Serum cholesterol, LSMEAN: 77.4 mg/dL
  Serum cholesterol, mean: 77.6 ± 23.1 mg/dL
Male Wister rats [2]; [7]
  Serum cholesterol % of control, LSMEAN: 75 % of control
  Serum cholesterol % of control, mean: 74 % of control
  Serum cholesterol, LSMEAN: 67.8 mg/dL
  Serum cholesterol, mean: 67.1 ± 17.9 mg/dL
Male Wister rats [2]; [8]
  Serum cholesterol % of control, LSMEAN: 80 % of control
  Serum cholesterol % of control, mean: 80 % of control
  Serum cholesterol, LSMEAN: 80.6 mg/dL
  Serum cholesterol, mean: 80.3 ± 21.8 mg/dL
Male Wister rats [2]; [9]
  Serum cholesterol % of control, LSMEAN: 62 % of control
  Serum cholesterol % of control, mean: 62 % of control
  Serum cholesterol, LSMEAN: 61.6† mg/dL
  Serum cholesterol, mean: 62.0 ± 16.0 mg/dL
Male Wister rats [2]; [10]
  Serum cholesterol % of control, LSMEAN: 72 % of control
  Serum cholesterol % of control, mean: 72 % of control
  Serum cholesterol, LSMEAN: 71.3† mg/dL
  Serum cholesterol, mean: 71.5 ± 17.8 mg/dL
Male Wister rats [2]; [11]
  Serum cholesterol % of control, LSMEAN: 60 % of control
  Serum cholesterol % of control, mean: 60 % of control
  Serum cholesterol, LSMEAN: 60.9† mg/dL
  Serum cholesterol, mean: 60.2 ± 19.3 mg/dL
Male Wister rats [2]; by 14 days, even at the lowest dosage level
  Effect on cholesterol levels (in words): reduces cholesterol levels
[3]
  Plasma DHA fatty acid area percent (in words): correlates with increasing dosing of DHA
  Plasma EPA fatty acid area percent (in words): does not increase in rats administered DHA-EE or DHASCO® to the same extent that it is increased in Lovaza®
